Measured values reported in paper PMC3020970, “K70Q Adds High-Level Tenofovir Resistance to “Q151M Complex” HIV Reverse Transcriptase through the Enhanced Discrimination Mechanism” (PLoS ONE, 2011).
Several values for one entry are separate records, joined by “and”; a condition that tells them apart may be missing. Identical values can stand only once. Like-named read-outs stand apart in the source and are kept apart here. Marks after values point to notes of the source that are not given here.

Columns and labels:
Assay type in all cases: biochemical
HIV-1 RT WT [1] = molecular target: T1, HIV-1 RT WT (Human immunodeficiency virus type 1 group M subtype B, UniProt P03366); assay: Primer extension assay
T1 construct: made in house; host or cells: Escherichia coli BL21
Method: (§1) RT sequences coding for the p66 and p51 subunits of BH10 were cloned in the pRT dual vector, which is derived from pCDF-2 with LIC duet minimal adaptor (Novagen), using restriction sites PpuMI and SacI for the p51 subunit, and SacII and AvrII for the p66 subunit. RT was expressed in the Escherichia coli strain BL21 (Invitrogen) and purified by nickel affinity chromatography and MonoQ anion exchange chromatography. RT concentrations were determined spectrophotometrically based on absorption at […] using a calculated extinction coefficient (261,610 M^−1 cm^−1). The active site concentration of the various RT preparations was calculated as described below.
(§2) DNA oligomers were synthesized by Integrated DNA Technologies (Coralville, IA). An 18-nucleotide DNA primer fluorescently labeled with Cy3 at the 5′ end (P18; 5′-Cy3 GTC CCT GTT CGG GCG CCA-3′) and a 100-nucleotide DNA template (T100; 5′-TAGTGTGTGCCCGTCTGTTGTGTGACTCTGGTAACTAGAGATCCCTCAGACCCTTTTAGTCAGTGTGGAAAATCTCTAGCAGTGGCGCCCGAACAGGGAC-3′) were used in primer extension assays. An 18-nucleotide DNA primer 5′-labeled with Cy3 (P18; 5′-Cy3 GTC ACT GTT CGA GCA CCA-3′) and a 31-nucleotide DNA template (T31; 5′- CCATAGCTAGCATTGGTGCTCGAACAGTGAC-3′) were used in the ATP rescue assay and pre-steady state kinetic experiments.
(§3) The enzyme (20 nM active sites) was incubated with 20 nM template/primer at 37°C in a buffer containing 50 mM Tris-HCl, pH 7.8 and 50 mM NaCl. The DNA synthesis was initiated by the addition of 1 µM dNTP and 10 mM MgCl2. The primer extension assays were carried out in the presence or absence of varying concentrations of TFV-DP. The reactions were terminated after 15 min by adding equal volume of 100% formamide containing traces of bromophenol blue. The extension products were resolved on a 7 M urea-15% polyacrylamide gel, and visualized by phosphor-imaging (FLA 5100, Fujifilm, Tokyo). We followed standard protocols that utilize the Multi Gauge software (Fujifilm) to quantitate primer extension, [44]. The results from dose response experiments were plotted using Prism 4 (GraphPad Software Inc., CA) and IC50 values for TFV-DP were obtained at midpoint concentrations.

HIV-1 RT K70Q/Q151Mc [2] = molecular target: T2, HIV-1 RT K70Q/Q151Mc (Human immunodeficiency virus type 1 group M subtype B, UniProt P03366, A661V/F676L/F715Y/K669Q/Q750M/V674I); assay: Primer extension assay
T2 construct: made in house; host or cells: Escherichia coli BL21
Method: as §1, §2, §3

HIV-1 RT K70Q = molecular target: T3, HIV-1 RT K70Q (Human immunodeficiency virus type 1 group M subtype B, UniProt P03366, K669Q); assay: Primer extension assay
T3 construct: made in house; host or cells: Escherichia coli BL21
Method: as §1, §2, §3

HIV-1 RT WT [3] = molecular target: T1, HIV-1 RT WT; assay: Pre-steady state kinetics of binding and incorporation
Method: (§4) Determination of active site concentrations in the different preparations of WT and mutant RTs were performed using pre-steady state burst experiments. […] The reactions were quenched at various times (10 ms to 5 s) by adding EDTA to a final concentration of 50 mM. The amounts of product (P18-dAMP) were quantitated and fit to the following burst equation: [drawing 1] (1) where A is the amplitude of the burst phase that represents the RT-DNA complex at the start of the reaction, k obs is the observed burst rate constant for dNTP incorporation, k ss is the steady state rate constant, and t is the reaction time. The rate constant of the linear phase (kcat) can be estimated by dividing the slope of the linear phase by the enzyme concentration. The active site concentration and template/primer binding affinity (KD-DNA) were determined by plotting the amplitude (A) against the concentration of template/primer. The data were fit using non-linear regression to a quadratic equation: [drawing 2] (2) where KD is the dissociation constant for the RT-DNA complex, and [RT] is the concentration of active polymerase molecules. Subsequent biochemical experiments were performed using corrected active site concentrations, [43].
(§5) HIV-1 RT (50 nM active sites) was pre-incubated with 50 nM T31/P18 in one syringe (Syringe A), whereas varying concentrations of dNTP and 10 mM MgCl2 were kept in another syringe (Syringe B). The solutions were rapidly mixed to initiate reactions, which were subsequently quenched at various times (5 ms to 10 s) by adding EDTA to a final concentration of 50 mM. The products from each quenched reaction were resolved, quantitated, and plotted as described above. The data were fit by non-linear regression to the burst equation (Eq 1).
(§6) To obtain the dissociation constant KD-dNTP for dNTP binding to the RT-DNA complex, the observed burst rates (kobs) were fit to the hyperbolic equation (Eq. 3) using nonlinear regression: [drawing 3] (3) where kpol is the optimal rate of dNTP incorporation.
(§7) The kinetics of TFV incorporation by the WT and mutant enzymes were carried out in a manner similar to that employed for natural dNTP substrate except the time of reactions. It was noted that the mutant enzymes required longer time to incorporate TFV compared to the WT HIV-1 RT (detailed in the Results section).

HIV-1 RT K70Q/Q151Mc [4] = molecular target: T2, HIV-1 RT K70Q/Q151Mc; assay: as above
Method: as §4, §5, §6, §7

HIV-1 RT Q151Mc = molecular target: T4, HIV-1 RT Q151Mc (Human immunodeficiency virus type 1 group M subtype B, UniProt P03366, A661V/F676L/F715Y/Q750M/V674I); assay: as above
T4 construct: made in house; host or cells: Escherichia coli BL21
Method: as §4, §5, §6, §7

[5] = with 3.5 mM ATP, read-out: IC50 of TFV-DP, with ATP
[6] = without ATP, read-out: IC50 of TFV-DP, without ATP

CC(Cn1cnc2c(N)ncnc21)OCP(=O)(O)OP(=O)(O)OP(=O)(O)O (stereo in doubt) [TFV-DP, tenofovir-diphosphate] was tested, and the “Excision enhancement due to ATP (IC50 with ATP/IC50 without ATP)” value (HIV-1 RT WT [1]) was 2.9 fold, the IC50 (HIV-1 RT WT [1]; [5]) was 1850 ± 197 nM and the “Fold increase in IC50 vs WT RT, with ATP” value (HIV-1 RT WT [1]; with ATP) was “(1) ^b fold”. For the same compound, the “Fold increase in IC50 vs WT RT, without ATP” value (“Fold increase … without ATP” below) (HIV-1 RT WT [1]; without ATP) was “(1) ^b fold”, the IC50 (HIV-1 RT WT [1]; [6]) was 641 ± 83 nM and the “Excision enhancement due to ATP (IC50 with ATP/IC50 without ATP)” value (HIV-1 RT K70Q/Q151Mc [2]) was 2.9 fold. For the same compound, the IC50 (HIV-1 RT K70Q/Q151Mc [2]; [5]) was 7000 ± 226 nM, the “Fold increase in IC50 vs WT RT, with ATP” value (HIV-1 RT K70Q/Q151Mc [2]; with ATP) was “(3.8) fold” and the “Fold increase … without ATP” value (HIV-1 RT K70Q/Q151Mc [2]; without ATP) was “(3.7) fold”. The IC50 (HIV-1 RT K70Q/Q151Mc [2]; [6]) was 2390 ± 353 nM, the “Excision enhancement due to ATP (IC50 with ATP/IC50 without ATP)” value (HIV-1 RT K70Q) was 2.9 fold and the IC50 (HIV-1 RT K70Q; [5]) was 2310 ± 270 nM. For the same compound, the “Fold increase in IC50 vs WT RT, with ATP” value (HIV-1 RT K70Q; with ATP) was “(1.2) fold”, the “Fold increase … without ATP” value (HIV-1 RT K70Q; without ATP) was “(1.3) fold” and the IC50 (HIV-1 RT K70Q; [6]) was 802 ± 99 nM. For the same compound, the “Selectivity (k pol/Kd)dATP/(k pol/Kd)TFV-DP” value (shortened to “Selectivity”) (HIV-1 RT WT [3]) was 1.6, the “k pol/Kd” value (HIV-1 RT WT [3]) was 1.47e+06 M⁻¹ s⁻¹ and 1.47e+06 ± 70000 M⁻¹ s⁻¹ and the k pol (HIV-1 RT WT [3]; T31/P18, 37°C) was 2.8 s⁻¹ and 2.8 ± 0.08 s⁻¹. For the same compound, the Kd (HIV-1 RT WT [3]; binding to RT-DNA complex) was 1900 ± 200 nM, the “Selectivity” value (HIV-1 RT K70Q/Q151Mc [4]; K70Q/Q151Mc RT) was 26.3 and the “k pol/Kd” value (HIV-1 RT K70Q/Q151Mc [4]; K70Q/Q151Mc RT) was 110000 M⁻¹ s⁻¹ and 110000 ± 30000 M⁻¹ s⁻¹. The “Reduced affinity for TFV than the WT enzyme” value (HIV-1 RT K70Q/Q151Mc [4]; K70Q/Q151Mc RT vs WT RT) was “more than 4.5 fold”, the k pol (HIV-1 RT K70Q/Q151Mc [4]; K70Q/Q151Mc RT, T31/P18, 37°C) was 1.0 ± 0.03 s⁻¹ and the Kd (HIV-1 RT K70Q/Q151Mc [4]; K70Q/Q151Mc RT, binding to RT-DNA complex) was 8900 ± 2100 nM. The “Selectivity” value (HIV-1 RT Q151Mc) was 11, the “k pol/Kd” value (HIV-1 RT Q151Mc) was 300000 M⁻¹ s⁻¹ and 300000 ± 60000 M⁻¹ s⁻¹ and the k pol (HIV-1 RT Q151Mc; T31/P18, 37°C) was 1.3 ± 0.03 s⁻¹. It also gave a Kd (HIV-1 RT Q151Mc; binding to RT-DNA complex) of 4300 ± 800 nM.
